“And” between values parts separate entries of the source, which are not always exact repeats. Equal values may be shown once. Toxic doses and inconclusive results are not listed. Rule for the calls: active = survival T/C of 150% or more; inactive = T/C below 125% in these data.
System: P388 leukemia ip, CD2F1 mice, survival T/C
Assay: NCI In Vivo Anticancer Drug Screen. Data for tumor model P388 Leukemia (intraperitoneal) in CD2F1 (CDF1) mice
Settings: endpoint: median survival time, higher = longer survival
In short: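 Mice carrying the transplanted tumor received test compound or vehicle. Survival was recorded in each group, and the value is the treated-group measurement divided by that of the vehicle-treated control group.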

[1] = dose: 50.0 mg/kg/injection, schedule: Q01DX005 (ip), vehicle: Klucel (hydroxypropylcellulose) (HPC)
[2] = dose: 100.0 mg/kg/injection, schedule: Q01DX005 (ip), vehicle: Klucel (hydroxypropylcellulose) (HPC)
[3] = dose: 200.0 mg/kg/injection, schedule: Q01DX005 (ip), vehicle: Klucel (hydroxypropylcellulose) (HPC)
[4] = dose: 50.0 mg/kg/injection, schedule: Q01DX005 (ip), vehicle: saline with Tween-80
[5] = dose: 100.0 mg/kg/injection, schedule: Q01DX005 (ip), vehicle: saline with Tween-80
[6] = dose: 200.0 mg/kg/injection, schedule: Q01DX005 (ip), vehicle: saline with Tween-80
[7] = dose: 100.0 mg/kg/injection, schedule: Q04DX002 (ip), vehicle: saline
[8] = dose: 200.0 mg/kg/injection, schedule: Q04DX002 (ip), vehicle: saline
[9] = dose: 400.0 mg/kg/injection, schedule: Q04DX002 (ip), vehicle: saline

Measured: T/C

COc1cc2nc(C)[nH]c(=O)c2cc1OC
inactive: [1] 109 % of control | [2] 90 % of control | [3] 99 % of control

c1cn(C23CC4CC(CC(C4)C2)C3)cn1
inactive: dose: 25.0 mg/kg/injection, schedule: Q01DX001 (ip), vehicle: Klucel (hydroxypropylcellulose) (HPC) 97 % of control

Cc1ccccc1N=C(c1ccccc1)C1C(=O)c2ccccc2C1=O
inactive: dose: 50.0 mg/kg/injection, schedule: Q01DX005 (ip), vehicle: DMSO 100 % of control | [1] 103 % of control | dose: 100.0 mg/kg/injection, schedule: Q01DX005 (ip), vehicle: DMSO 98 % of control | [2] 106 % of control | dose: 200.0 mg/kg/injection, schedule: Q01DX005 (ip), vehicle: DMSO 97 % of control | [3] 103 % of control | dose: 400.0 mg/kg/injection, schedule: Q01DX005 (ip), vehicle: DMSO 101 % of control | dose: 800.0 mg/kg/injection, schedule: Q01DX005 (ip), vehicle: DMSO 97 % of control

CCCCCCCCCCCCCCCCCCSc1c(OC)c(OC(C)=O)c(OC)c(OC)c1OC(C)=O
inactive: dose: 4.0 mg/kg/injection, schedule: Q01DX009 (ip), vehicle: Klucel (hydroxypropylcellulose) (HPC) 87 % of control | dose: 8.0 mg/kg/injection, schedule: Q01DX009 (ip), vehicle: Klucel (hydroxypropylcellulose) (HPC) 98 % of control | dose: 16.0 mg/kg/injection, schedule: Q01DX009 (ip), vehicle: Klucel (hydroxypropylcellulose) (HPC) 96 % of control | dose: 32.0 mg/kg/injection, schedule: Q01DX009 (ip), vehicle: Klucel (hydroxypropylcellulose) (HPC) 98 % of control

CCOC(OCC)N(C)C
inactive: dose: 60.0 mg/kg/injection, schedule: Q01DX005 (ip), vehicle: saline 95 % of control | dose: 120.0 mg/kg/injection, schedule: Q01DX005 (ip), vehicle: saline 100 % of control | dose: 240.0 mg/kg/injection, schedule: Q01DX005 (ip), vehicle: saline 93 % of control

COc1ccc(C2[C@@H]3CCc4ccccc4C3=NN2C(C)=O)cc1 (stereo partly specified)
inactive: [4] 93 % of control | [5] 91 % of control | [6] 87 % of control

COc1cccc(/C=N/NP(=S)(Oc2ccc(C(C)(C)C)cc2)Oc2ccc(C(C)(C)C)cc2)c1OC
inactive: [4] 98 % of control | [5] 95 % of control | [6] 100 % of control

COC(=O)c1[nH]c(=O)c(C#N)c(C(=O)OC)c1C(=O)c1ccc(Cl)c(Cl)c1
inactive: dose: 60.0 mg/kg/injection, schedule: Q01DX005 (ip), vehicle: Klucel (hydroxypropylcellulose) (HPC) 100 % of control | dose: 120.0 mg/kg/injection, schedule: Q01DX005 (ip), vehicle: Klucel (hydroxypropylcellulose) (HPC) 107 % of control | dose: 240.0 mg/kg/injection, schedule: Q01DX005 (ip), vehicle: Klucel (hydroxypropylcellulose) (HPC) 100 % of control

CCOC(=O)CCC#N
inactive: dose: 50.0 mg/kg/injection, schedule: Q01DX009 (ip), vehicle: saline 99 % of control and 105 % of control | dose: 100.0 mg/kg/injection, schedule: Q01DX009 (ip), vehicle: saline 107 % of control and 108 % of control | dose: 200.0 mg/kg/injection, schedule: Q01DX009 (ip), vehicle: saline 105 % of control and 106 % of control | dose: 400.0 mg/kg/injection, schedule: Q01DX009 (ip), vehicle: saline 100 % of control

CCOC(=O)c1cnc2cc(Cl)ccc2c1N=[N+]=[N-]
inactive: dose: 60.0 mg/kg/injection, schedule: Q01DX005 (ip), vehicle: saline with Tween-80 91 % of control | dose: 120.0 mg/kg/injection, schedule: Q01DX005 (ip), vehicle: saline with Tween-80 100 % of control | dose: 240.0 mg/kg/injection, schedule: Q01DX005 (ip), vehicle: saline with Tween-80 99 % of control

CC(=O)Nc1ccc(N)cc1C
inactive: [7] 96 % of control | [8] 97 % of control | [9] 97 % of control

COC(=O)C1(C)N=C1N(C)C (stereo unspecified)
inactive: [7] 92 % of control | [8] 90 % of control | [9] 93 % of control

CCC(O)C1(OC)C=CC(OC)O1 (stereo unspecified)
inactive: dose: 3.12 mg/kg/injection, schedule: Q01DX005 (ip), vehicle: saline 100 % of control | dose: 6.25 mg/kg/injection, schedule: Q01DX005 (ip), vehicle: saline 97 % of control | dose: 12.5 mg/kg/injection, schedule: Q01DX005 (ip), vehicle: saline 101 % of control

O=C1c2ccccc2C(O)(C#Cc2ccccc2)c2cc(Cl)ccc21 (stereo unspecified)
inactive: dose: 50.0 mg/kg/injection, schedule: Q01DX009 (ip), vehicle: saline with Tween-80 106 % of control | dose: 100.0 mg/kg/injection, schedule: Q01DX009 (ip), vehicle: saline with Tween-80 102 % of control | dose: 200.0 mg/kg/injection, schedule: Q01DX009 (ip), vehicle: saline with Tween-80 90 % of control

C=C1C(=O)OCC1(C(=O)OCC)C(=O)OCC
inactive: dose: 4.0 mg/kg/injection, schedule: Q01DX009 (ip), vehicle: saline with Tween-80 117 % of control | dose: 8.0 mg/kg/injection, schedule: Q01DX009 (ip), vehicle: saline with Tween-80 117 % of control and 124 % of control | dose: 16.0 mg/kg/injection, schedule: Q01DX009 (ip), vehicle: saline with Tween-80 115 % of control | dose: 32.0 mg/kg/injection, schedule: Q01DX009 (ip), vehicle: saline with Tween-80 115 % of control

CCCCCN1C(=O)C2C3CCC(O3)C2C1=O (stereo unspecified)
inactive: [1] 109 % of control | [2] 109 % of control

CC(C)(C)C(=O)Oc1ccc(N=C(N)N)cc1
inactive: dose: 50.0 mg/kg/injection, schedule: Q01DX005 (ip), vehicle: saline 102 % of control | dose: 100.0 mg/kg/injection, schedule: Q01DX005 (ip), vehicle: saline 104 % of control | dose: 200.0 mg/kg/injection, schedule: Q01DX005 (ip), vehicle: saline 105 % of control

Cc1cc(=NO)cc(C)n1O
inactive: dose: 25.0 mg/kg/injection, schedule: Q01DX005 (ip), vehicle: distilled water + alcohol 113 % of control | dose: 50.0 mg/kg/injection, schedule: Q01DX005 (ip), vehicle: distilled water + alcohol 113 % of control and 123 % of control | dose: 50.0 mg/kg/injection, schedule: Q01DX005 (ip), vehicle: water 115 % of control | dose: 100.0 mg/kg/injection, schedule: Q01DX005 (ip), vehicle: distilled water + alcohol 121 % of control | dose: 100.0 mg/kg/injection, schedule: Q01DX005 (ip), vehicle: water 106 % of control | dose: 200.0 mg/kg/injection, schedule: Q01DX005 (ip), vehicle: water 118 % of control

COc1ccc(Cc2cc(O)c(OC)cc2O)cc1
inactive: dose: 0.32 mg/kg/injection, schedule: Q01DX009 (ip), vehicle: saline with Tween-80 104 % of control | dose: 0.63 mg/kg/injection, schedule: Q01DX009 (ip), vehicle: saline with Tween-80 107 % of control | dose: 1.25 mg/kg/injection, schedule: Q01DX009 (ip), vehicle: saline with Tween-80 104 % of control | dose: 2.5 mg/kg/injection, schedule: Q01DX009 (ip), vehicle: saline with Tween-80 111 % of control | dose: 5.0 mg/kg/injection, schedule: Q01DX009 (ip), vehicle: saline with Tween-80 100 % of control and 108 % of control | dose: 10.0 mg/kg/injection, schedule: Q01DX009 (ip), vehicle: saline with Tween-80 106 % of control

CCCCCCCCCCCCCCCc1cccc(OC)c1C(=O)O
inactive: dose: 7.5 mg/kg/injection, schedule: Q01DX009 (ip), vehicle: saline with Tween-80 107 % of control | dose: 15.0 mg/kg/injection, schedule: Q01DX009 (ip), vehicle: saline with Tween-80 113 % of control | dose: 30.0 mg/kg/injection, schedule: Q01DX009 (ip), vehicle: saline with Tween-80 116 % of control

Reference: PubChem BioAssay AID330 (DTP/NCI, 2004)
